Converted amounts (≈) assume the structure as drawn.
Key:
physchem = assay type: physicochemical
Procedure: Ten mg, 100 mg, 500 mg, 1000 mg and 2000 mg of β-CD/Res complex were put in 100 mL volumetric flasks and water was added until completing their volume. The solutions stayed at ultrasound for 60 minutes. Then samples were centrifuged and filtered in a 0.45 μm pore diameter cellulose acetate membrane. Twenty μL portions of the samples were diluted 2000 times and their absorbances were measured by a UV-VIS spectrophotometer (FIG. 2). It was noticed that system saturation happens from 1000 mg of β-CD/Res (FIG. 3). The concentration of trans-resveratrol in 1000 mg and 2000 mg β-CD/Res sample concentrations was determined by High-Performance Liquid Chromatography (HPLC). For quantification, an external calibration curve was used, with trans-resveratrol concentrations ranging from 0.10 a 200.0 mg.L^−1. HPLC was carried out in isocratic elution (flow of 1.0 mL min^−1), with an aqueous solution of 25% acetonitrile, pH 3.0, adjusted with H3PO4. The chromatograph was equipped with UV-VIS detector and a C18 column, 5 μm 250×4.6 mm. Sample portions were diluted 1000 times with eluent, and 20 μL were injected and detected in 306 nm. The concentrations of trans-resveratrol of the 1000 mg sample of β-CD/Res complex were 3010±62 mg.L^−1 and of the 2000 mg sample of βCD/Res complex were 2960.5±53 mg.L^−1. […] All analyses were carried out in quintuplicate.

[1] = background statement; cited from earlier work

Oc1ccc(C=Cc2cc(O)cc(O)c2)cc1 [trans-resveratrol, 3,5,4′-trihydroxystilbene]
Solubility (physchem; 60 min): 27.5 mg/L (≈ 120 µM) | solubility at 60 min (physchem; water, thermodynamic from solid): 27.5 ± 0.45 µg/mL (≈ 120 µM) | water solubility [1]: less than 0.03 g/L
